This test addresses human Factor Xa (Homo sapiens, UniProt P00742). The test is described as follows: In Vitro Enzyme Inhibitor Assay (Factor Xa inhibitory activity). It counts as biochemical. The settings on record: human Factor Xa 0.5-5 nM, pH 8, 150 μM zinc chloride, 1 hour preincubation at room temperature, substrate MesOC-Norleu-Gly-Arg-pNA; read-out: Apparent inhibition constants (Ki). The method, then: The following represents an assay for determining the Factor Xa inhibitory activity of compounds of Formula I.
Apparent inhibition constants (Ki) were calculated from the enzyme progress curves using standard mathematical models.

For 18 compounds, Ki results are on record in US6150379A, “Compounds and compositions as anticoagulants” (Axys Pharmaceuticals, Inc., priority 1998, dated 2000).

Sequence of human Factor Xa (P00742 235-488 limits assumed): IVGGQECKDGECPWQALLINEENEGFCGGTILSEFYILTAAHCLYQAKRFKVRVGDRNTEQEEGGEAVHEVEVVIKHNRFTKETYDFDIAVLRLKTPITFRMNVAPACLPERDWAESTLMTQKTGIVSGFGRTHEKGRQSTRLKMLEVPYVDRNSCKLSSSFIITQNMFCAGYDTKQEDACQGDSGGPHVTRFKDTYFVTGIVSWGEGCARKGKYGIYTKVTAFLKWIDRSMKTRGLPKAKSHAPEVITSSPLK
Sequence of human Factor Xa (P00742 41-179 partner limits assumed): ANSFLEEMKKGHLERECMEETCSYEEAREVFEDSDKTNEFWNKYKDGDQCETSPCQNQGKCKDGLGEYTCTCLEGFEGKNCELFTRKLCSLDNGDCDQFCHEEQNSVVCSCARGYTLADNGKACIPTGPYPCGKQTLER

With “6-(5-amidino-1H-benzimidazol-2-yl)-N-(2-morpholin-4-ylethyl)pyridine-5-carboxamide [Compound 69]”, the Ki came out at 40 nM. “6-(5-amidino-1H-benzimidazol-2-yl)-N-[2-(3,4-dichlorophenyl)ethyl]pyridine- 5-carboxamide [Compound 88]”: the Ki is 6 nM. In the case of “6-(5-amidino-1H-benzimidazol-2-yl)-N-[2-(4-methylphenyl)ethyl]pyridine-5-carboxamide [Compound 86]”, the Ki is 8 nM. The value for `CCCCc1ccc(-c2nc3cc(C(=N)N)ccc3[nH]2)nc1` [Compound 1] was 3 nM; that for `Cc1c(-c2nc3cc(C(=N)N)ccc3[nH]2)ncn1Cc1ccccc1` [Compound 16, 2-(5-methyl-1-benzyl-1H-imidazol-4-yl)-1H-benzimidazole-5-carboxamidine] was 8 nM. As for `N=C(N)c1ccc2[nH]c(-c3nccn3Cc3ccccc3)nc2c1` [Compound 17, 2-(1-benzyl-1H-imidazol-2-yl)-1H-benzimidazole-5-carboxamidine], the Ki was determined as 4 nM. Next, `CCCn1cnc(-c2nc3cc(C(=N)N)ccc3[nH]2)c1C` [Compound 20, 2-(5-methyl-1-propyl-1H-imidazol-4-yl)-1H-benzimidazole-5-carboxamidine]: 7 nM. In the case of `CCCCn1ccnc1-c1nc2cc(C(=N)N)ccc2[nH]1` [Compound 27, 2-(1-butyl-1H-imidazol-2-yl)-1H-benzimidazole-5-carboxamidine], the Ki amounted to 5 nM. The value for `CCOC(=O)Cn1ccnc1-c1nc2cc(C(=N)N)ccc2[nH]1` [Compound 33, ethyl 2-(5-amidino-1H-benzimidazol-2-yl)imidazol-1-ylacetate] was 5 nM; that for `Cc1c(-c2nc3cc(C(=N)N)ccc3[nH]2)ncn1CCCN1C(=O)c2ccccc2C1=O` [Compound 36, 2-{1-[3-(1,3-dioxo-1,3-dihydroisoindol-2-yl)propyl]-5-methyl-1H-imidazol-4-yl}-1H-benzimidazole-5-carboxamidine] was 5 nM. With `N=C(N)c1ccc2[nH]c(-c3nccn3CCCCN3C(=O)c4ccccc4C3=O)nc2c1` [Compound 39, 2-{1-[4-(1,3-dioxo-1,3-dihydroisoindol-2-yl)butyl]-1H-imidazol-2-yl}-1H-benzimidazole-5-carboxamidine], the Ki amounted to 6 nM. Consider `COc1ccc(CCNC(=O)c2ccnc(-c3nc4cc(C(=N)N)ccc4[nH]3)c2)cc1` [Compound 50, 6-(5-amidino-1H-benzimidazol-2-yl)-N-[2-(4-methoxyphenyl)ethyl]pyridine-4-carboxamide], for which the Ki came to 10 nM. The value for `COc1ccc(CCNC(=O)c2ccc(-c3nc4cc(C(=N)N)ccc4[nH]3)nc2)cc1Br` [Compound 57] was 2 nM; that for `N=C(N)c1ccc2[nH]c(-c3nccn3CC(=O)NCCc3ccc(Cl)cc3)nc2c1` [Compound 90, 2-(5-amidino-1H-benzimidazol-2-yl)imidazol-1-yl-N-[2-(4-chlorophenyl)ethyl]acetamide] was 3 nM. The value for `N=C(N)c1ccc2[nH]c(-c3nccn3CC(=O)NCCc3ccc(O)cc3)nc2c1` [Compound 95, 2-(5-amidino-1H-benzimidazol-2-yl)imidazol-1-yl-N-[2-(4-hydroxyphenyl)ethyl]acetamide] was 6 nM; that for `N=C(N)c1ccc2[nH]c(-c3nccn3CC(=O)NCCc3cccc4ccccc34)nc2c1` [Compound 96, 2-(5-amidino-1H-benzimidazol-2-yl)imidazol-1-yl-N-(2-naphth-1-ylethyl)acetamide] was 30 nM.

For `N=C(N)c1ccc2[nH]c(-c3nccn3CCCC(=O)N3CCOCC3)nc2c1` [Compound 98, 2-[1-(3-morpholin-4-ylcarbonylpropyl)-1H-imidazol-2-yl]-1H-benzimidazole-5-carboxamidine], the Ki is 2 nM. Next, `N=C(N)c1ccc2[nH]c(-c3nccn3CCCC(=O)NCCc3ccc(Cl)cc3)nc2c1` [Compound 100, 4-[2-(5-amidino-1H-benzimidazol-2-yl)imidazol-1-yl]-N-[2-(4-chlorophenyl)ethyl]butyramide]: 6 nM.
